Several values for one entry are separate records, joined by “and”; a condition that tells them apart may be missing. Equal values may be shown once. Read-outs that look alike come from different tables or passages of the source. One block for each compound: values may come before it.
Tests used:
Format in all cases: cell-based, human
[1] = test system: non-senescent control A549 cells; assay: Nuclei count senolytic assay, TIS model, non-senescent control cells; conditions: for viability at 10 µM / viability at 4.68 µM / viability at 2.19 µM / viability at 1 µM / viability at 0.468 µM / viability at 0.219 µM / viability at 0.1 µM / viability at 0.0468 µM / viability at 0.0219 µM / viability at 0.01 µM: A549, Control cells, mean, read-out: Mean % Cell Survival; for % Cell Survival: control cells, single replicate
Procedure, shortened: (§1)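 Nuclei counted by Hoechst 33342 imaging after fixation, following 72 h treatment with compound at 10 nM–10 μM (10-point […], triplicates). Targets were control A549 cells and A549 rendered senescent by 48 h 100 μM etoposide plus 3 days recovery.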

[2] = test system: senescent A549 cells (etoposide-induced); assay: Nuclei count senolytic assay, therapy-induced senescence (TIS) model, senescent cells; conditions: for viability at 10 µM / viability at 4.68 µM / viability at 2.19 µM / viability at 1 µM / viability at 0.468 µM / viability at 0.219 µM / viability at 0.1 µM / viability at 0.0468 µM / viability at 0.0219 µM / viability at 0.01 µM: A549, Senescent cells, mean, read-out: Mean % Cell Survival; for % Cell Survival: senescence cells, single replicate
Procedure, shortened: as §1

[3] = test system: senescent IMR90 ER:RAS cells (4-OHT-induced); assay: Nuclei count (Hoechst, high content imaging) senolytic assay, oncogene-induced senescence (OIS) model, senescent cells; conditions: for viability at 4.677 µM: log (dose) [M] -5.33, 72 h; for viability at 1 µM: log (dose) [M] -6, 72 h; for viability at 0.1 µM: log (dose) [M] -7, 72 h; for senolytic activity (in words): experimental screen
Procedure, shortened: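 Senolytic read-out as total nuclei per well by automated Hoechst imaging after 72 h compound exposure (10 μM to 10 nM, 10-point […], triplicate), relative to untreated controls. Paired cultures: IMR90 ER:RAS kept non-senescent or made senescent with 100 nM final 4-OHT; ouabain served as positive control.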

[4] = Homo sapiens, log (dose) [M] -5
[5] = Homo sapiens, log (dose) [M] -5.33
[6] = Homo sapiens, log (dose) [M] -5.66
[7] = Homo sapiens, log (dose) [M] -6
[8] = Homo sapiens, log (dose) [M] -6.33
[9] = Homo sapiens, log (dose) [M] -6.66
[10] = Homo sapiens, log (dose) [M] -7
[11] = Homo sapiens, log (dose) [M] -7.33
[12] = Homo sapiens, log (dose) [M] -7.66
[13] = Homo sapiens, log (dose) [M] -8
[14] = Homo sapiens, IMR-90, 72 h, Senescent, log (dose) [M] -5, 72 h, mean n=3 (Fig 3C), read-out: Mean % Cell Survival
[15] = Homo sapiens, IMR-90, 72 h, Senescent, mean n=3 (Fig 3C), read-out: Mean % Cell Survival
[16] = Homo sapiens, IMR-90, 72 h, Senescent, log (dose) [M] -5.66, 72 h, mean n=3 (Fig 3C), read-out: Mean % Cell Survival
[17] = Homo sapiens, IMR-90, 72 h, Senescent, log (dose) [M] -6.33, 72 h, mean n=3 (Fig 3C), read-out: Mean % Cell Survival
[18] = Homo sapiens, IMR-90, 72 h, Senescent, log (dose) [M] -6.66, 72 h, mean n=3 (Fig 3C), read-out: Mean % Cell Survival
[19] = Homo sapiens, IMR-90, 72 h, Senescent, log (dose) [M] -7.33, 72 h, mean n=3 (Fig 3C), read-out: Mean % Cell Survival
[20] = Homo sapiens, IMR-90, 72 h, Senescent, log (dose) [M] -7.66, 72 h, mean n=3 (Fig 3C), read-out: Mean % Cell Survival
[21] = Homo sapiens, IMR-90, 72 h, Senescent, log (dose) [M] -8, 72 h, mean n=3 (Fig 3C), read-out: Mean % Cell Survival
[22] = Homo sapiens, IMR-90, Senescent cells, log (dose) [M] -7.33, individual replicates, SUP FIG 4C, read-out: % Cell Survival

IC50 ([1]; Homo sapiens, TIS model, non-senescent A549, nuclei count, 72 h): 10.4 µM
IC50 ([2]; Homo sapiens, TIS model, etoposide-induced senescent A549, nuclei count, 72 h): 5.7 µM
IC50 ([3]; Homo sapiens, IMR-90, OIS model, 4-OHT-induced IMR90 ER:RAS, nuclei count, 72 h): 2.6 µM
Structure (SMILES): COc1cc(O)c2c(=O)cc(-c3ccc(OC)c(-c4c(O)cc(O)c5c(=O)cc(-c6ccc(O)cc6)oc45)c3)oc2c1 [Ginkgetin, ginkgetin]
viability at 10 µM [1, 4]: 56.2%
viability at 4.68 µM [1, 5]: 65.7%
viability at 2.19 µM [1, 6]: 98.7%
viability at 1 µM [1, 7]: 85.7%
viability at 0.468 µM [1, 8]: 31.8%
viability at 0.219 µM [1, 9]: 96.2%
viability at 0.1 µM [1, 10]: 94%
viability at 0.0468 µM [1, 11]: 96.8%
viability at 0.0219 µM [1, 12]: 95.6%
viability at 0.01 µM [1, 13]: 68.4%
% Cell Survival ([1]; log (dose) [M] -5): 52.2043% and 59.0944% and 57.4435%
% Cell Survival ([1]; log (dose) [M] -5.33): 97.7607% and 99.3093%
% Cell Survival ([1]; log (dose) [M] -5.66): 91.6025% and 99.9233% and 104.599%
% Cell Survival ([1]; log (dose) [M] -6): 75.5773% and 89.4858% and 92.1278%
% Cell Survival ([1]; log (dose) [M] -6.33): 95.472%
% Cell Survival ([1]; log (dose) [M] -6.66): 87.9636% and 100.998% and 99.7662%
% Cell Survival ([1]; log (dose) [M] -7): 85.4444% and 99.693% and 96.7264%
% Cell Survival ([1]; log (dose) [M] -7.33): 92.3723% and 99.3093% and 98.675%
% Cell Survival ([1]; log (dose) [M] -7.66): 89.3632% and 102.916% and 94.4661%
% Cell Survival ([1]; log (dose) [M] -8): 103.761% and 101.325%
viability at 10 µM [2, 4]: 25.9%
viability at 4.68 µM [2, 5]: 55.3%
viability at 2.19 µM [2, 6]: 103%
viability at 1 µM [2, 7]: 115%
viability at 0.468 µM [2, 8]: 104%
viability at 0.219 µM [2, 9]: 126%
viability at 0.1 µM [2, 10]: 85.3%
viability at 0.0468 µM [2, 11]: 89.9%
viability at 0.0219 µM [2, 12]: 99.8%
viability at 0.01 µM [2, 13]: 95.8%
concentration at which a senolytic effect was reached ([2]; TIS A549, Hoechst labelling, marginal or no effect on normal cells): 4.64 µM
senolytic action (in words) ([2]; experimental screen, TIS senescent A549): strong senolytic action
% Cell Survival ([2]; log (dose) [M] -5): 26.9419% and 20.9924% and 29.7526%
% Cell Survival ([2]; log (dose) [M] -5.33): 57.8726% and 51.7176% and 56.1849%
% Cell Survival ([2]; log (dose) [M] -5.66): 111.826% and 87.7863% and 107.943%
% Cell Survival ([2]; log (dose) [M] -6): 147.166% and 101.59% and 95.3776%
% Cell Survival ([2]; log (dose) [M] -6.33): 97.7607% and 104.262% and 110.807%
% Cell Survival ([2]; log (dose) [M] -6.66): 107.348% and 137.468% and 133.789%
% Cell Survival ([2]; log (dose) [M] -7): 106.298% and 85.6234% and 63.9323%
% Cell Survival ([2]; log (dose) [M] -7.33): 97.7607% and 95.0382% and 76.8229%
% Cell Survival ([2]; log (dose) [M] -7.66): 110.287% and 102.735% and 86.4583%
% Cell Survival ([2]; log (dose) [M] -8): 107.348% and 95.9288% and 84.0495%
viability at 10 µM [3, 14]: 5.11%
viability at 4.677 µM [3, 15]: 9.69%
viability at 2.188 µM [3, 16]: 80%
viability at 1 µM [3, 15]: 93.5%
viability at 0.4677 µM [3, 17]: 108%
viability at 0.2188 µM [3, 18]: 95.6%
viability at 0.1 µM [3, 15]: 105%
viability at 0.04677 µM [3, 19]: 113%
viability at 0.02188 µM [3, 20]: 105%
viability at 0.01 µM [3, 21]: 110%
viability at 10 µM ([3]; Homo sapiens, IMR-90, senescence, log (dose) [M] -5, individual replicates (Fig 3D), read-out: % Cell Survival): 4.7%
viability at 2.188 µM ([3]; Homo sapiens, IMR-90, senescence, log (dose) [M] -5.66, individual replicates (Fig 3D), read-out: % Cell Survival): 71.2%
viability at 0.04677 µM ([3]; Homo sapiens, IMR-90, senescence, log (dose) [M] -7.33, individual replicates (Fig 3D), read-out: % Cell Survival): 116%
dose showing the clearest senolytic effect ([3]; OIS IMR90 ER:RAS, Hoechst nuclei count, marginal effect on normal cells): 4.6 µM
senolytic activity (in words) ([3]; OIS IMR90 ER:RAS): clear senolytic action

Structure (SMILES): Cc1cc2c(C(C)C)c(O)c(O)c(C=O)c2c(O)c1-c1c(C)cc2c(C(C)C)c(O)c(O)c(C=O)c2c1O [Gossypol, gossypol]
viability at 10 µM [1, 4]: 117%
viability at 4.68 µM [1, 5]: 107%
viability at 2.19 µM [1, 6]: 100%
viability at 1 µM [1, 7]: 101%
viability at 0.468 µM [1, 8]: 108%
viability at 0.219 µM [1, 9]: 94.5%
viability at 0.1 µM [1, 10]: 68%
viability at 0.0468 µM [1, 11]: 101%
viability at 0.01 µM [1, 13]: 78.1%
viability at 10 µM [2, 4]: 110%
viability at 4.68 µM [2, 5]: 146%
viability at 2.19 µM [2, 6]: 166%
viability at 1 µM [2, 7]: 126%
viability at 0.468 µM [2, 8]: 74.4%
viability at 0.219 µM [2, 9]: 149%
viability at 0.1 µM [2, 10]: 112%
viability at 0.0468 µM [2, 11]: 69.1%
viability at 0.0219 µM [2, 12]: 107%
viability at 0.01 µM [2, 13]: 117%
viability at 10 µM [3, 14]: 26.6%
viability at 4.677 µM [3, 15]: 121%
viability at 2.188 µM [3, 16]: 156%
viability at 1 µM [3, 15]: 166%
viability at 0.4677 µM [3, 17]: 168%
viability at 0.2188 µM [3, 18]: 188%
viability at 0.1 µM [3, 15]: 130%
viability at 0.04677 µM [3, 19]: 120%
viability at 0.02188 µM [3, 20]: 145%
viability at 0.01 µM [3, 21]: 116%
viability at 0.2188 µM ([3]; Homo sapiens, IMR-90, Senescent cells, log (dose) [M] -6.66, individual replicates, SUP FIG 4C, read-out: % Cell Survival): 189%
viability at 0.04677 µM [3, 22]: 127%

Structure (SMILES): O=c1c(O)c(-c2ccc(O)cc2)oc2c(O)c(O)cc(O)c12 [Herbacetin, herbacetin]
viability at 10 µM [1, 4]: 95.4%
viability at 4.68 µM [1, 5]: 61.9%
viability at 2.19 µM [1, 6]: 89.3%
viability at 1 µM [1, 7]: 98.7%
viability at 0.468 µM [1, 8]: 110%
viability at 0.219 µM [1, 9]: 94.4%
viability at 0.1 µM [1, 10]: 93.1%
viability at 0.0468 µM [1, 11]: 91.6%
viability at 0.0219 µM [1, 12]: 96.1%
viability at 0.01 µM [1, 13]: 96.9%
viability at 10 µM [2, 4]: 112%
viability at 4.68 µM [2, 5]: 122%
viability at 2.19 µM [2, 6]: 121%
viability at 1 µM [2, 7]: 87.3%
viability at 0.468 µM [2, 8]: 80.2%
viability at 0.219 µM [2, 9]: 102%
viability at 0.1 µM [2, 10]: 114%
viability at 0.0468 µM [2, 11]: 106%
viability at 0.0219 µM [2, 12]: 98.6%
viability at 0.01 µM [2, 13]: 91.8%
viability at 10 µM [3, 14]: 103%
viability at 4.677 µM [3, 15]: 98.4%
viability at 2.188 µM [3, 16]: 76.1%
viability at 1 µM [3, 15]: 71.6%
viability at 0.4677 µM [3, 17]: 91.9%
viability at 0.2188 µM [3, 18]: 84.1%
viability at 0.1 µM [3, 15]: 95.7%
viability at 0.04677 µM [3, 19]: 90.5%
viability at 0.02188 µM [3, 20]: 97.8%
viability at 0.01 µM [3, 21]: 97.5%
viability at 0.4677 µM ([3]; Homo sapiens, IMR-90, Senescent cells, log (dose) [M] -6.33, individual replicates, SUP FIG 4C, read-out: % Cell Survival): 94.7%
viability at 0.04677 µM [3, 22]: 85.5%
viability at 0.02188 µM ([3]; Homo sapiens, IMR-90, Senescent cells, log (dose) [M] -7.66, individual replicates, SUP FIG 4C, read-out: % Cell Survival): 100%
viability at 0.01 µM ([3]; Homo sapiens, IMR-90, Senescent cells, log (dose) [M] -8, individual replicates, SUP FIG 4C, read-out: % Cell Survival): 91.5%
viability at 0.02188 µM ([3]; Homo sapiens, IMR-90, Senescent, log (dose) [M] -7.66, read-out: % Cell Survival): 104%
senolytic activity (in words) ([3]; OIS IMR90 ER:RAS): inactive
